Data: patent US9758529B2, “Fused dihydro-4H-pyrazolo[5,1-C][1,4]oxazinyl compounds and analogs for treating CNS disorders” (Sunovion Pharmaceuticals Inc., priority 2015, dated 2017)

Test system: mice
Assay: Neuropharmacological Assay (SmartCube)
Type: in vivo
Details: i.p. 15 min before behavioral test; 3 doses, most efficacious dose(s) presented
Excerpt: Neurosci. […] As reported in Roberds, because psychiatric diseases generally result from disorders of cell-cell communication or circuitry, intact systems are useful in detecting improvement in disease-relevant endpoints. These endpoints are typically behavioral in nature, often requiring human observation and interpretation. To facilitate testing of multiple compounds for behavioral effects relevant to psychiatric disease, PsychoGenics, Inc. (Tarrytown, N.Y., “PGI”) developed SmartCube™, an automated system in which behaviors of compound-treated mice are captured by digital video and analyzed with computer algorithms. […] PGI Analytical Systems uses data from SmartCube™ to compare the behavioral signature of a test compound to a database of behavioral signatures obtained using a large set of diverse reference compounds. (The composition of the database as well as validation of the method is further described in Roberds). In this way, the neuropharmacological effects of a test compound can be predicted by similarity to major classes of compounds, such as antipsychotics, anxiolytics and antidepressants.
The SmartCube™ system produces an activity signature indicating the probability that the activity of the test compound at the administered dose matches a given class of neuropharmacological agents. (See, e.g., Roberds, FIGS. 2 and 3). The test compound is simultaneously compared against multiple classes of agents; thus, a separate probability is generated for each behavioral effect measured (e.g., anxiolytic activity, analgesic activity, etc.). In Table 2 and 2B, these probabilities are reported for each behavioral effect measured as follows:
where LOQ is the limit of quantification.
Provided compounds were dissolved in a mixture of Pharmasolve™ (N-methyl-2-pyrrolidone), polyethylene glycol and propylene glycol, and were injected i.p. 15 min. before the behavioral test. For each compound, injections were administered at 3 different doses. For each behavioral effect measured, results for the most efficacious dose(s) are presented.

| Compound | AD: ADHD (probability of class match) | AG: analgesic (probability of class match) | AX: anxiolytic (probability of class match) | CE: cognitive enhancer (probability of class match) | DP: anti-depressant (probability of class match) | HA: hallucinogen (probability of class match) | MS: mood stabilizer (probability of class match) | PS: anti-psychotic (probability of class match) | SD: sedative hypnotic (probability of class match) | UN: uncharacterized CNS activity (probability of class match) | XG: anxiogenic (probability of class match) |
| --- | --- | --- | --- | --- | --- | --- | --- | --- | --- | --- | --- |
| Cl.c1ccc2c3n(nc2c1)CCO[C@@H]3[C@@H]1COCCN1 (racemic) [Compound 45, (+/−)—(S)-3-((R)-3,4-dihydro-1H-[1,4]oxazino[4,3-b]indazol-1-yl)morpholin-4-ium chloride] | + (LOQ≦ + <5%) | + (LOQ≦ + <5%) | + (LOQ≦ + <5%) | + (LOQ≦ + <5%) | + (LOQ≦ + <5%) | + (LOQ≦ + <5%) | + (LOQ≦ + <5%) | + (LOQ≦ + <5%) | + (LOQ≦ + <5%) | + (LOQ≦ + <5%) | + (LOQ≦ + <5%) |
| Cl.c1ccc2c3n(nc2c1)CCO[C@H]3[C@@H]1COCCN1 (racemic) [Compound 46, (+/−)—(S)-3-((S)-3,4-dihydro-1H-[1,4]oxazino[4,3-b]indazol-1-yl)morpholin-4-ium chloride] | + (LOQ≦ + <5%) | ++ (5%≦ ++ <25%) | ++ (5%≦ ++ <25%) | + (LOQ≦ + <5%) | + (LOQ≦ + <5%) | + (LOQ≦ + <5%) | + (LOQ≦ + <5%) | ++ (5%≦ ++ <25%) | ++ (5%≦ ++ <25%) | ++ (5%≦ ++ <25%) | + (LOQ≦ + <5%) |
| CN1CCOC[C@H]1[C@H]1OCCn2nc3ccccc3c21 (racemic) [Compound 47, (+/−)-(3S,4R)-3-((R)-3,4-dihydro-1H-[1,4]oxazino[4,3-b]indazol-1-yl)-4-methylmorpholin-4-ium chloride] | + (LOQ≦ + <5%) | ++ (5%≦ ++ <25%) | ++ (5%≦ ++ <25%) | + (LOQ≦ + <5%) | + (LOQ≦ + <5%) | + (LOQ≦ + <5%) | + (LOQ≦ + <5%) | + (LOQ≦ + <5%) | + (LOQ≦ + <5%) | + (LOQ≦ + <5%) | + (LOQ≦ + <5%) |
| CN1CCOC[C@H]1[C@@H]1OCCn2nc3ccccc3c21 (racemic) [Compound 48, (+/−)-(3S,4R)-3-((S)-3,4-dihydro-1H-[1,4]oxazino[4,3-b]indazol-1-yl)-4-methylmorpholin-4-ium chloride] | + (LOQ≦ + <5%) | + (LOQ≦ + <5%) | + (LOQ≦ + <5%) | + (LOQ≦ + <5%) | + (LOQ≦ + <5%) | + (LOQ≦ + <5%) | + (LOQ≦ + <5%) | + (LOQ≦ + <5%) | + (LOQ≦ + <5%) | + (LOQ≦ + <5%) | + (LOQ≦ + <5%) |
| C[C@@H](N)[C@H]1OCCn2nc3ccccc3c21.Cl (relative stereo) [Compound 30, (+/−)-rel-(R)-1-((R)-3,4-dihydro-1H-[1,4]oxazino[4,3-b]indazol-1-yl) ethanaminium chloride] | ++ (5%≦ ++ <25%) | ++ (5%≦ ++ <25%) | +++ (25%≦ +++ <50%) | + (LOQ≦ + <5%) | ++ (5%≦ ++ <25%) | ++ (5%≦ ++ <25%) | + (LOQ≦ + <5%) | + (LOQ≦ + <5%) | + (LOQ≦ + <5%) | + (LOQ≦ + <5%) | + (LOQ≦ + <5%) |
| CN[C@H](C)[C@H]1OCCn2nc3ccccc3c21.Cl (relative stereo) [Compound 31, (+/−)-rel-(R)-1-((R)-3,4-dihydro-1H-[1,4]oxazino[4,3-b]indazol-1-yl)-N-methylethanaminium chloride] | + (LOQ≦ + <5%) | ++ (5%≦ ++ <25%) | +++ (25%≦ +++ <50%) | ++ (5%≦ ++ <25%) | ++ (5%≦ ++ <25%) | + (LOQ≦ + <5%) | + (LOQ≦ + <5%) | ++ (5%≦ ++ <25%) | + (LOQ≦ + <5%) | +++ (25%≦ +++ <50%) | + (LOQ≦ + <5%) |
| C[C@H]([C@H]1OCCn2nc3ccccc3c21)N(C)C.Cl (relative stereo) [Compound 32, (+/−)-rel-(R)-1-((R)-3,4-dihydro-1H-[1,4]oxazino[4,3-b]indazol-1-yl)-N,N-dimethylethanaminium chloride] | + (LOQ≦ + <5%) | + (LOQ≦ + <5%) | ++ (5%≦ ++ <25%) | ++ (5%≦ ++ <25%) | ++ (5%≦ ++ <25%) | + (LOQ≦ + <5%) | + (LOQ≦ + <5%) | +++ (25%≦ +++ <50%) | + (LOQ≦ + <5%) | ++ (5%≦ ++ <25%) | + (LOQ≦ + <5%) |
| C[C@H](N)[C@H]1OCCn2nc3ccccc3c21 (relative stereo) [Compound 33, (+/−)-rel-(R)-1-((S)-3,4-dihydro-1H-[1,4]oxazino[4,3-b]indazol-1-yl) ethanaminium chloride] | ++++ (50%≦ ++++) | ++ (5%≦ ++ <25%) | ++ (5%≦ ++ <25%) | + (LOQ≦ + <5%) | ++ (5%≦ ++ <25%) | ++ (5%≦ ++ <25%) | + (LOQ≦ + <5%) | + (LOQ≦ + <5%) | + (LOQ≦ + <5%) | +++ (25%≦ +++ <50%) | + (LOQ≦ + <5%) |
| CN[C@@H](C)[C@H]1OCCn2nc3ccccc3c21 (relative stereo) [Compound 34, (+/−)-rel-(R)-1-((S)-3,4-dihydro-1H-[1,4]oxazino[4,3-b]indazol-1-yl)-N-methylethanaminium chloride] | + (LOQ≦ + <5%) | + (LOQ≦ + <5%) | ++ (5%≦ ++ <25%) | + (LOQ≦ + <5%) | + (LOQ≦ + <5%) | + (LOQ≦ + <5%) | + (LOQ≦ + <5%) | + (LOQ≦ + <5%) | + (LOQ≦ + <5%) | + (LOQ≦ + <5%) | + (LOQ≦ + <5%) |
| CNC[C@@H]1OCCn2nc3ccccc3c21 [Compound 1, (S)-(3,4-dihydro-1H-[1,4]oxazino[4,3-b]indazol-1-yl)-N-methylmethanaminium chloride] | + (LOQ≦ + <5%) | + (LOQ≦ + <5%) | ++ (5%≦ ++ <25%) | + (LOQ≦ + <5%) | + (LOQ≦ + <5%) | + (LOQ≦ + <5%) | + (LOQ≦ + <5%) | + (LOQ≦ + <5%) | + (LOQ≦ + <5%) | + (LOQ≦ + <5%) | + (LOQ≦ + <5%) |
